Where two headings read alike, the source gives them in different places.
Test system: THP1 luciferase reporter cells
Assay: cells
Format: cell-based
[1] = 16 hours, read-out: THP1-ISG-Luc with PFO, EC50
[2] = 16 hours, read-out: THP-ISG-Luc without PFO, EC50
[3] = Homo sapiens, THP-1, 16 h, read-out: THP1-ISG-Luc with PFO, EC50
[4] = Homo sapiens, THP-1, 16 h, read-out: THP-ISG-Luc without PFO, EC50

## Nc1nc2c(ncn2[C@@H]2O[C@@H]3COP(=O)(S)OC4C(O)[C@H](n5ncc6c(N)ncnc65)O[C@@H]4COP(=O)(S)OC2C3O)c(=O)[nH]1 (single isomer, unassigned) [EA4]
[1]
  EC50: 0.1 to 1 µM
[2]
  EC50: < 30 µM

## Nc1nc2c(ncn2[C@@H]2O[C@@H]3COP(=O)(S)OC4C(O)[C@H](n5ncc6c(N)ncnc65)O[C@@H]4COP(=O)(S)OC2C3O)c(=O)[nH]1 (single isomer, unassigned) [EA5]
[1]
  EC50: > 1 µM
[2]
  EC50: > 100 µM

## Nc1nc2c(ccn2[C@@H]2O[C@@H]3COP(=O)(S)OC4C(O)[C@H](n5cnc6c(N)ncnc65)O[C@@H]4COP(=O)(S)OC2C3O)c(=O)[nH]1 (single isomer, unassigned) [EA6]
[1]
  EC50: > 1 µM
[2]
  EC50: > 100 µM

## Nc1nc2c(ccn2[C@@H]2O[C@@H]3COP(=O)(S)O[C@@H]4C(O)[C@H](n5cnc6c(N)ncnc65)O[C@@H]4COP(=O)(S)O[C@H]2C3O)c(=O)[nH]1 (single isomer, unassigned) [EA7]
[3]
  EC50: 0.1 to 1 µM
[4]
  EC50: < 30 µM

## Nc1nc2c(ccn2[C@@H]2O[C@@H]3COP(=O)(S)OC4C(O)[C@H](n5cnc6c(N)ncnc65)O[C@@H]4COP(=O)(S)OC2C3O)c(=O)[nH]1 (single isomer, unassigned) [EA8]
[1]
  EC50: 0.1 to 1 µM
[2]
  EC50: < 30 µM

## BP1(=O)OC[C@H]2O[C@@H](n3cnc4c(N)ncnc43)C(O)C2OP(=O)(O)OC[C@H]2O[C@@H](n3cnc4c(=O)[nH]c(N)nc43)C(O1)C2O (single isomer, unassigned) [EA9]
[3]
  EC50: < 0.1 µM
[4]
  EC50: < 30 µM

## Nc1nc2c(ccn2[C@@H]2O[C@@H]3COP(=O)(O)OC4C(O)[C@H](n5ccc6c(N)ncnc65)O[C@@H]4COP(=O)(S)OC2C3O)c(=O)[nH]1 (single isomer, unassigned) [EB1]
[1]
  EC50: > 1 µM
[4]
  EC50: 30 to 100 µM

## Nc1nc2c(ccn2[C@@H]2O[C@@H]3COP(=O)(O)OC4C(O)[C@H](n5ccc6c(N)ncnc65)O[C@@H]4COP(=O)(S)OC2C3O)c(=O)[nH]1 (single isomer, unassigned) [EB2]
[1]
  EC50: < 0.1 µM
[2]
  EC50: < 30 µM

## Nc1nc2c(ccn2[C@@H]2O[C@@H]3COP(=O)(O)OC4C(O)[C@H](n5cnc6c(N)ncnc65)O[C@@H]4COP(=O)(S)OC2C3O)c(=O)[nH]1 (single isomer, unassigned) [EB4]
[3]
  EC50: > 1 µM
[4]
  EC50: 30 to 100 µM

## Nc1nc2c(cnn2[C@@H]2O[C@@H]3COP(=O)(S)OC4C(O)[C@H](n5cnc6c(N)ncnc65)O[C@@H]4COP(=O)(S)OC2C3O)c(=O)[nH]1 (single isomer, unassigned) [EB7]
[3]
  EC50: > 1 µM
[4]
  EC50: > 100 µM

## Nc1nc2c(ncn2[C@@H]2O[C@@H]3COP(=O)(O)OC4C(O)[C@H](n5ccc6c(N)ncnc65)O[C@@H]4COP(=O)(S)OC2C3OCC(F)(F)F)c(=O)[nH]1 (single isomer, unassigned) [EC2]
[3]
  EC50: 0.1 to 1 µM
[4]
  EC50: 30 to 100 µM

## Nc1nc2c(ccn2[C@@H]2O[C@@H]3COP(=O)(S)OC4C(O)[C@@H](COP(=O)(O)OC3C2O)O[C@H]4n2ccc3c(=O)[nH]c(N)nc32)c(=O)[nH]1 (single isomer, unassigned) [EC4]
[1]
  EC50: > 1 µM
[2]
  EC50: > 100 µM

## Nc1nc2c(ccn2[C@@H]2O[C@@H]3COP(=O)(S)OC4C(O)[C@@H](COP(=O)(O)OC3C2O)O[C@H]4n2ccc3c(=O)[nH]c(N)nc32)c(=O)[nH]1 (single isomer, unassigned) [EC5]
[1]
  EC50: 0.1 to 1 µM
[2]
  EC50: 30 to 100 µM

## Nc1nc2c(ccn2[C@@H]2O[C@@H]3COP(=O)(S)OC4C(O)[C@@H](COP(=O)(O)OC3C2O)O[C@H]4n2ccc3c(N)ncnc32)c(=O)[nH]1 (single isomer, unassigned) [EC8]
[3]
  EC50: > 1 µM
[4]
  EC50: > 100 µM

## Nc1nc2c(ccn2[C@@H]2O[C@@H]3COP(=O)(S)OC4C(O)[C@@H](COP(=O)(O)OC3C2O)O[C@H]4n2ccc3c(N)ncnc32)c(=O)[nH]1 (single isomer, unassigned) [EC9]
[1]
  EC50: > 1 µM
[2]
  EC50: > 100 µM

## Nc1nc2c(ccn2[C@@H]2O[C@@H]3COP(=O)(O)OC4C(O)[C@@H](COP(=O)(S)OC2C3O)O[C@H]4n2cnc3c(N)ncnc32)c(=O)[nH]1 (single isomer, unassigned) [EC14]
[1]
  EC50: > 1 µM
[2]
  EC50: > 100 µM

## Nc1nc2c(ccn2[C@@H]2O[C@@H]3COP(=O)(O)OC4C(O)[C@@H](COP(=O)(S)OC2C3O)O[C@H]4n2cnc3c(N)ncnc32)c(=O)[nH]1 (single isomer, unassigned) [EC15]
[1]
  EC50: 0.1 to 1 µM
[2]
  EC50: < 30 µM

## Nc1nc2c(ncn2[C@@H]2O[C@@H]3COP(=O)(O)OC4C[C@H](n5ccc6ccccc65)O[C@@H]4COP(=O)(S)OC2C3O)c(=O)[nH]1 (single isomer, unassigned) [EC17]
[3]
  EC50: > 1 µM
[4]
  EC50: > 100 µM

## Nc1nc2c(ncn2[C@@H]2O[C@@H]3COP(=O)(O)OC4C[C@H](n5ccc6ccccc65)O[C@@H]4COP(=O)(S)OC2C3O)c(=O)[nH]1 (single isomer, unassigned) [EC18]
[1]
  EC50: > 1 µM
[2]
  EC50: > 100 µM

## Nc1nc2c(ncn2[C@@H]2O[C@@H]3COP(=O)(O)OC4C[C@H](c5ccc6ccc7cccc8ccc5c6c78)O[C@@H]4COP(=O)(S)OC2C3O)c(=O)[nH]1 (single isomer, unassigned) [EC20]
[3]
  EC50: > 1 µM
[4]
  EC50: > 100 µM

## Nc1nc2c(ncn2[C@@H]2O[C@@H]3COP(=O)(O)OC4C[C@H](c5ccc6ccc7cccc8ccc5c6c78)O[C@@H]4COP(=O)(S)OC2C3O)c(=O)[nH]1 (single isomer, unassigned) [EC21]
[1]
  EC50: > 1 µM
[2]
  EC50: > 100 µM

## Nc1nc2c(ncn2[C@@H]2O[C@@H]3COP(=O)(S)OC4C(O)[C@H](n5cnc6c(N)ncnc65)O[C@@H]4COP(=O)(O)OC2C3O)c(=O)[nH]1 (single isomer, unassigned) [Example E6]
[3]
  EC50: < 0.1 µM
[4]
  EC50: < 30 µM

## Nc1nc2c(ncn2[C@@H]2O[C@@H]3COP(=O)(S)OC4C(O)[C@H](n5cnc6c(N)ncnc65)O[C@@H]4COP(=O)(O)OC2C3O)c(=O)[nH]1 (single isomer, unassigned) [Example E7]
[1]
  EC50: < 0.1 µM
[2]
  EC50: < 30 µM

## Nc1nc2c(ncn2[C@@H]2O[C@@H]3COP(=O)(O)OC4C(O)[C@H](n5cnc6c(N)ncnc65)O[C@@H]4COP(=O)(S)OC2C3O)c(=O)[nH]1 (single isomer, unassigned) [Example E8]
[2]
  EC50: > 100 µM
[3]
  EC50: 0.1 to 1 µM

## Nc1nc2c(ncn2[C@@H]2O[C@@H]3COP(=O)(O)OC4C(O)[C@H](n5cnc6c(N)ncnc65)O[C@@H]4COP(=O)(S)OC2C3O)c(=O)[nH]1 (single isomer, unassigned) [Example E9]
[1]
  EC50: < 0.1 µM
[2]
  EC50: < 30 µM

## Nc1nc2c(ncn2[C@@H]2O[C@@H]3COP(=O)(S)OC4C(O)[C@H](n5cnc6c(N)ncnc65)O[C@@H]4COP(=O)(S)OC2C3O)c(=O)[nH]1 (single isomer, unassigned) [Example E12]
[2]
  EC50: < 30 µM
[3]
  EC50: < 0.1 µM

## Nc1nc2c(ncn2[C@@H]2O[C@@H]3COP(=O)(S)OC4C(O)[C@H](n5cnc6c(N)ncnc65)O[C@@H]4COP(=O)(S)OC2C3O)c(=O)[nH]1 (single isomer, unassigned) [Example E13]
[1]
  EC50: 0.1 to 1 µM
[2]
  EC50: > 100 µM

## Nc1nc2c(ncn2[C@@H]2O[C@@H]3COP(=O)(S)OC4C(O)[C@H](n5cnc6c(N)ncnc65)O[C@@H]4COP(=O)(S)OC2C3O)c(=O)[nH]1 (single isomer, unassigned) [Example E14]
[1]
  EC50: 0.1 to 1 µM
[2]
  EC50: > 100 µM

## Nc1nc2c(ncn2[C@@H]2O[C@@H]3COP(=O)(S)O[C@@H]4C(O)[C@H](n5ccc6c(N)ncnc65)O[C@@H]4COP(=O)(S)O[C@H]2C3O)c(=O)[nH]1 (single isomer, unassigned) [Example E15]
[3]
  EC50: > 1 µM
[4]
  EC50: > 100 µM

## Nc1nc2c(ncn2[C@@H]2O[C@@H]3COP(=O)(S)OC4C(O)[C@H](n5ccc6c(N)ncnc65)O[C@@H]4COP(=O)(S)OC2C3O)c(=O)[nH]1 (single isomer, unassigned) [Example E16]
[1]
  EC50: < 0.1 µM
[2]
  EC50: < 30 µM

## Nc1nc2c(ncn2[C@@H]2O[C@@H]3COP(=O)(S)OC4C(O)[C@H](n5ccc6c(N)ncnc65)O[C@@H]4COP(=O)(S)OC2C3O)c(=O)[nH]1 (single isomer, unassigned) [Example E17]
[1]
  EC50: > 1 µM
[2]
  EC50: > 100 µM

## Nc1nc2c(ncn2[C@@H]2O[C@@H]3COP(=O)(S)OC4C(O)[C@H](n5ccc6c(N)ncnc65)O[C@@H]4COP(=O)(S)OC2C3O)c(=O)[nH]1 (single isomer, unassigned) [Example E18]
[1]
  EC50: < 0.1 µM
[2]
  EC50: < 30 µM

## Nc1nc2c(ccn2[C@@H]2O[C@@H]3COP(=O)(S)OC4C(O)[C@H](n5ccc6c(N)ncnc65)O[C@@H]4COP(=O)(S)OC2C3O)c(=O)[nH]1 (single isomer, unassigned) [Example E20]
[3]
  EC50: 0.1 to 1 µM
[4]
  EC50: < 30 µM

## Nc1nc2c(ccn2[C@@H]2O[C@@H]3COP(=O)(S)OC4C(O)[C@H](n5ccc6c(N)ncnc65)O[C@@H]4COP(=O)(S)OC2C3O)c(=O)[nH]1 (single isomer, unassigned) [Example E21]
[1]
  EC50: 0.1 to 1 µM
[2]
  EC50: < 30 µM

## Nc1nc2c(ccn2[C@@H]2O[C@@H]3COP(=O)(S)OC4C(O)[C@H](n5ccc6c(N)ncnc65)O[C@@H]4COP(=O)(S)OC2C3O)c(=O)[nH]1 (single isomer, unassigned) [Example E22]
[1]
  EC50: 0.1 to 1 µM
[2]
  EC50: < 30 µM

## BP1(=O)OC[C@H]2O[C@@H](n3cnc4c(N)ncnc43)C(O)[C@H]2OP(=O)(O)OC[C@H]2O[C@@H](n3cnc4c(=O)[nH]c(N)nc43)[C@@H](O1)C2O (single isomer, unassigned) [Example E25]
[3]
  EC50: < 0.1 µM
[4]
  EC50: < 30 µM

## Nc1nc2c(ccn2[C@@H]2O[C@@H]3COP(=O)(O)OC4C(O)[C@H](n5ccc6c(N)ncnc65)O[C@@H]4COP(=O)(O)OC2C3O)c(=O)[nH]1 (stereo in doubt) [EA1]
[3]
  EC50: 0.1 to 1 µM
[4]
  EC50: > 100 µM

## Nc1nc2c(ncn2[C@@H]2O[C@@H]3COP(=O)(O)OC4C(O)[C@H](n5cnc6c(N)ncnc65)O[C@@H]4COP(=O)(O)OC2C3OCC(F)(F)F)c(=O)[nH]1 (stereo in doubt) [EA2]
[3]
  EC50: < 0.1 µM
[4]
  EC50: < 30 µM

From patent publication US11299512B2 (priority 2016, dated 2022)
